This is an account of results in patent US8846698B2, “Pyrrolo[2,3-d]pyrimidine tropomysin-related kinase inhibitors” (Pfizer Limited, priority 2011, dated 2014).

Each structure is given as a SMILES string. pIC50: −log10 of the molar value.

The target of the assay is TRKA (Homo sapiens (Human), UniProt P04629). In words: Isolated TRK enzyme assay (HTRF KinEASE-TK), TRKA. Type of assay: biochemical. Particulars: read-out: Trka enzyme (IC50). In general terms: In TR-FRET formats the signal depends on donor and acceptor labels being close together.
Chain of TRKA (P04629 441-796): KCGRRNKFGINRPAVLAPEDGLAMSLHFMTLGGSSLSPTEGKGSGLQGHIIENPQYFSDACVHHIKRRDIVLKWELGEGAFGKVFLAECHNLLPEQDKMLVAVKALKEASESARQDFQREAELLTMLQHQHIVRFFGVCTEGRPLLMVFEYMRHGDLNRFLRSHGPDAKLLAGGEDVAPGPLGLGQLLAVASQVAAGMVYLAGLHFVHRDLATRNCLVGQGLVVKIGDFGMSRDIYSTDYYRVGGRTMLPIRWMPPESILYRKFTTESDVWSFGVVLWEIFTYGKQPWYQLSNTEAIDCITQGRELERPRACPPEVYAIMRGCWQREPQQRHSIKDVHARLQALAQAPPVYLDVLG
The term pIC50 denotes −log10 of the IC50, conventionally taken in molar units. With `CC(C)n1cc(C(=O)c2cncc(NC(=O)c3cc(C4CC4)n[nH]3)c2)c2cncnc21` [Example 497, 5-Cyclopropyl-2H-pyrazole-3-carboxylic acid [5-(7-isopropyl-7H-pyrrolo[2,3-d]pyrimidine-5-carbonyl)-pyridin-3-yl]-amide], the negative-log IC50 (pIC50) was 7.36. Under `Cc1cc2nnc(C(=O)Nc3cncc(C(=O)c4cn(C(C)C)c5ncncc45)c3)c(C)n2n1` [Example 498] stands 5.63; under `Cc1ccncc1C(=O)Nc1cncc(C(=O)c2cn(C(C)C)c3ncncc23)c1` [Example 499, N-[5-(7-Isopropyl-7H-pyrrolo[2,3-d]pyrimidine-5-carbonyl)-pyridin-3-yl]-4-methyl-nicotinamide], 5.01; under `CC(C)n1cc(C(=O)c2cncc(NC(=O)c3cn(C4CCC4)cn3)c2)c2cncnc21` [Example 500, 1-Cyclobutyl-1H-imidazole-4-carboxylic acid [5-(7-isopropyl-7H-pyrrolo[2,3-d]pyrimidine-5-carbonyl)-pyridin-3-yl]-amide], 7.59. Regarding `CC(C)n1cc(C(=O)c2cncc(NC(=O)c3cc4ccccn4n3)c2)c2cncnc21` [Example 501, Pyrazolo[1,5-a]pyridine-2-carboxylic acid [5-(7-isopropyl-7H-pyrrolo[2,3-d]pyrimidine-5-carbonyl)-pyridin-3-yl]-amide], the pIC50 is 6.70. For `CC(C)n1cc(C(=O)c2cncc(NC(=O)c3ccc4nnnn4c3)c2)c2cncnc21` [Example 502, Tetrazolo[1,5-a]pyridine-6-carboxylic acid [5-(7-isopropyl-7H-pyrrolo[2,3-d]pyrimidine-5-carbonyl)-pyridin-3-yl]-amide], the pIC50 was 5.20. In the case of `CC(C)n1cc(C(=O)c2cncc(NC(=O)c3nnc4n3CCCC4)c2)c2cncnc21` [Example 503, 5,6,7,8-Tetrahydro-1,2,4-triazolo[4,3-a]pyridine-3-carboxylic acid [5-(7-isopropyl-7H-pyrrolo[2,3-d]pyrimidine-5-carbonyl)-pyridin-3-yl]-amide], the pIC50 was 6.02.

On to `Cc1nc(C(=O)Nc2cncc(C(=O)c3cn(C(C)C)c4ncncc34)c2)c(C(F)(F)F)o1` [Example 504, 2-Methyl-5-trifluoromethyl-oxazole-4-carboxylic acid [5-(7-isopropyl-7H-pyrrolo[2,3-d]pyrimidine-5-carbonyl)-pyridin-3-yl]-amide], for which the pIC50 was 5.99. For `CC(C)n1cc(C(=O)c2cncc(NC(=O)c3cnc4cc[nH]c4c3)c2)c2cncnc21` [Example 505, 1H-Pyrrolo[3,2-b]pyridine-6-carboxylic acid [5-(7-isopropyl-7H-pyrrolo[2,3-d]pyrimidine-5-carbonyl)-pyridin-3-yl]-amide], the negative logarithm of the IC50 (pIC50) is 5.79. Under `CC(C)n1cc(C(=O)c2cncc(NC(=O)c3ccc4cnnc-4[nH]3)c2)c2cncnc21` [Example 506, Pyrazolo[3,4-b]pyridine-6-carboxylic acid [5-(7-isopropyl-7H-pyrrolo[2,3-d]pyrimidine-5-carbonyl)-pyridin-3-yl]-amide] stands 7.17. Consider `CC(C)n1cc(C(=O)c2cncc(NC(=O)c3[nH]nc4ccccc34)c2)c2cncnc21` [Example 507, 2H-Indazole-3-carboxylic acid [5-(7-isopropyl-7H-pyrrolo[2,3-d]pyrimidine-5-carbonyl)-pyridin-3-yl]-amide], for which the negative-log IC50 (pIC50) is 8.26. In the case of `Cc1noc2ncc(C(=O)Nc3cncc(C(=O)c4cn(C(C)C)c5ncncc45)c3)cc12` [Example 508, 3-Methyl-isoxazolo[5,4-b]pyridine-5-carboxylic acid [5-(7-isopropyl-7H-pyrrolo[2,3-d]pyrimidine-5-carbonyl)-pyridin-3-yl]-amide] it was 5.79. Regarding `CC(C)n1cc(C(=O)c2cncc(NC(=O)c3ccnnc3)c2)c2cncnc21` [Example 509, Pyridazine-4-carboxylic acid [5-(7-isopropyl-7H-pyrrolo[2,3-d]pyrimidine-5-carbonyl)-pyridin-3-yl]-amide], the pIC50 is 5.01.

As for `CC(C)n1cc(C(=O)c2cncc(NC(=O)c3cc4c(cn3)OCCO4)c2)c2cncnc21` [Example 510, 2,3-Dihydro-1,4-dioxino[2,3-c]pyridine-7-carboxylic acid [5-(7-isopropyl-7H-pyrrolo[2,3-d]pyrimidine-5-carbonyl)-pyridin-3-yl]-amide], the pIC50 was 6.60. Consider `CC(C)n1cc(C(=O)c2cncc(NC(=O)c3n[nH]c4ncccc34)c2)c2cncnc21` [Example 511, 1H-Pyrazolo[3,4-b]pyridine-3-carboxylic acid [5-(7-isopropyl-7H-pyrrolo[2,3-d]pyrimidine-5-carbonyl)-pyridin-3-yl]-amide], for which the pIC50 is 6.84.

As for `CC(C)n1cc(C(=O)c2cncc(NC(=O)c3n[nH]c4ccc(F)cc34)c2)c2cncnc21` [Example 512, 5-Fluoro-1H-indazole-3-carboxylic acid [5-(7-isopropyl-7H-pyrrolo[2,3-d]pyrimidine-5-carbonyl)-pyridin-3-yl]-amide], the pIC50 is 7.90. Under `Cc1cc(C(=O)Nc2cncc(C(=O)c3cn(C(C)C)c4ncncc34)c2)n(C)n1` [Example 513, 2,5-Dimethyl-2H-pyrazole-3-carboxylic acid [5-(7-isopropyl-7H-pyrrolo[2,3-d]pyrimidine-5-carbonyl)-pyridin-3-yl]-amide] stands 5.72; under `CC(C)n1cc(C(=O)c2cncc(NC(=O)c3ccnc4ncsc34)c2)c2cncnc21` [Example 514, Thiazolo[4,5-b]pyridine-7-carboxylic acid [5-(7-isopropyl-7H-pyrrolo[2,3-d]pyrimidine-5-carbonyl)-pyridin-3-yl]-amide], 5.01. Regarding `CC(C)n1cc(C(=O)c2cncc(NC(=O)c3cn4nc(Cl)ccc4n3)c2)c2cncnc21` [Example 515, 6-Chloro-imidazo[1,2-b]pyridazine-2-carboxylic acid [5-(7-isopropyl-7H-pyrrolo[2,3-d]pyrimidine-5-carbonyl)-pyridin-3-yl]-amide], the pIC50 was 5.94.

`CC(C)n1cc(C(=O)c2cncc(NC(=O)CN3CCc4cccnc4C3)c2)c2cncnc21` [Example 517, 2-(5,8-Dihydro-6H-[1,7]naphthyridin-7-yl)-N-[5-(7-isopropyl-7H-pyrrolo[2,3-d]pyrimidine-5-carbonyl)-pyridin-3-yl]-acetamide]: the pIC50 was 5.36. In the case of `CC(C)n1cc(C(=O)c2cncc(NC(=O)C(O)c3ccccc3)c2)c2cncnc21` (stereo not shown) [Example 518, 2-Hydroxy-N-[5-(7-isopropyl-7H-pyrrolo[2,3-d]pyrimidine-5-carbonyl)-pyridin-3-yl]-2-phenyl-acetamide] it was 8.14; in that of `CCOc1ncc(C(=O)c2cn(C(C)C)c3ncncc23)cc1NC(=O)Cn1nc(C(F)(F)F)cc1C` [Example 519, N-[2-Ethoxy-5-(7-isopropyl-7H-pyrrolo[2,3-d]pyrimidine-5-carbonyl)-pyridin-3-yl]-2-(5-methyl-3-trifluoromethyl-pyrazol-1-yl)-acetamide], 7.32. For `CC(C)(C)n1cc(C(=O)c2cncc(NC(=O)Cc3ccc(C#N)cc3)c2)c2cnc(N)nc21` [Example 520, N-[5-(2-Amino-7-tert-butyl-7H-pyrrolo[2,3-d]pyrimidine-5-carbonyl)-pyridin-3-yl]-2-(4-cyano-phenyl)-acetamide], the pIC50 was 8.34. In the case of `CC(C)n1cc(C(=O)c2cncc(NC(=O)C(CO)c3ccc(Cl)cc3)c2)c2cncnc21` (stereo not shown) [Example 521, 2-(4-Chloro-phenyl)-3-hydroxy-N-[5-(7-isopropyl-7H-pyrrolo[2,3-d]pyrimidine-5-carbonyl)-pyridin-3-yl]-propionamide] it was 7.03; in that of `N#Cc1ccc(CC(=O)Nc2cncc(C(=O)c3cn(C4(CO)CC4)c4ncncc34)c2)cc1` [Example 522, 2-(4-Cyano-phenyl)-N-{5-[7-(1-hydroxymethyl-cyclopropyl)-7H-pyrrolo[2,3-d]pyrimidine-5-carbonyl]-pyridin-3-yl}-acetamide], 7.36; in that of `O=C(Cc1ccc(Cl)cn1)Nc1cncc(C(=O)c2cn(C3(CO)CC3)c3ncncc23)c1` [Example 523, 2-(5-Chloro-pyridin-2-yl)-N-{5-[7-(1-hydroxymethyl-cyclopropyl)-7H-pyrrolo[2,3-d]pyrimidine-5-carbonyl]-pyridin-3-yl}-acetamide], 7.94. Regarding `O=C(Cc1ccc(C(F)(F)F)cc1)Nc1cncc(C(=O)c2cn(C3(CO)CC3)c3ncncc23)c1` [Example 524, N-{5-[7-(1-Hydroxymethyl-cyclopropyl)-7H-pyrrolo[2,3-d]pyrimidine-5-carbonyl]-pyridin-3-yl}-2-(4-trifluoromethyl-phenyl)-acetamide], the pIC50 is 8.34. On to `O=C(Cn1ccc(C(F)(F)F)n1)Nc1cncc(C(=O)c2cn(C3(CO)CC3)c3ncncc23)c1` [Example 525, N-{5-[7-(1-Hydroxymethyl-cyclopropyl)-7H-pyrrolo[2,3-d]pyrimidine-5-carbonyl]-pyridin-3-yl}-2-(3-trifluoromethyl-pyrazol-1-yl)-acetamide], for which the pIC50 was 8.02. `CC(C)n1cc(C(=O)c2cncc(NC(=O)Nc3cc(C4CC4)nn3-c3cnn(C)c3)c2)c2cncnc21` [Example 526, 1-(3-Cyclopropyl-1′-methyl-1′H-[1,4′]bipyrazolyl-5-yl)-3-[5-(7-isopropyl-7H-pyrrolo[2,3-d]pyrimidine-5-carbonyl)-pyridin-3-yl]-urea]: the negative-log IC50 (pIC50) is 8.82.

For the compound `CC(C)n1cc(C(=O)c2cncc(NC(=O)Nc3cc(C(C)(C)C)nn3-c3cnn(C)c3)c2)c2cncnc21` [Example 527, 1-(3-tert-Butyl-1′-methyl-1′H-[1,4′]bipyrazolyl-5-yl)-3-[5-(7-isopropyl-7H-pyrrolo[2,3-d]pyrimidine-5-carbonyl)-pyridin-3-yl]-urea], the pIC50 was 8.33. Under `CC(C)(C)n1cc(C(=O)c2cncc(NC(=O)Cc3nc4ccccc4[nH]3)c2)c2cnc(N)nc21` [Example 528, N-[5-(2-Amino-7-tert-butyl-7H-pyrrolo[2,3-d]pyrimidine-5-carbonyl)-pyridin-3-yl]-2-(1H-benzoimidazol-2-yl)-acetamide] stands 8.65.
